According to patent US11667651B2, “Aminopyridine derivatives as phosphatidylinositol phosphate kinase inhibitors” (HiberCell, Inc., priority 2017, dated 2023):

Biological target: T1, PIP4K2A (Homo sapiens, UniProt P48426)
T1 sequence (P48426 1-406): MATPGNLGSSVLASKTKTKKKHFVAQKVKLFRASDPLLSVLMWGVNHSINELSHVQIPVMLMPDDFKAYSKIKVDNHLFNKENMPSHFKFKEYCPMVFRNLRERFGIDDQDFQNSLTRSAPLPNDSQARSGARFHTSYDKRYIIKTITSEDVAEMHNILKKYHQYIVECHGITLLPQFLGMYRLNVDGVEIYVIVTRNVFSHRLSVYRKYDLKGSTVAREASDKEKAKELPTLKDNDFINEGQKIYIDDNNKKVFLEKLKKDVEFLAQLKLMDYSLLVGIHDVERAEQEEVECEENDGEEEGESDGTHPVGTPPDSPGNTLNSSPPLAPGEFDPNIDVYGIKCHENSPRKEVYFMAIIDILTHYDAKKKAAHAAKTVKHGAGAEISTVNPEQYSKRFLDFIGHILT
Test: Kinase Assay PIP4K2 A (Table 2)
Assay type: biochemical
Parameters: 4 nM PIP4K2A (full length protein, SignalChem); purchased SignalChem
Details: compounds listed under IC50 bins
Experimental: Dilution series of the compounds were prepared in DMSO at 100 times the final assay concentration (n1=n0/3 in 10 points). The compounds were further diluted to three times the assay concentration in assay buffer (20 mM MOPS pH 7.2, 25 mM magnesium chloride, 0.005% Tween 20). 6 μL of the diluted compounds were added to a 384 well assay plate followed by 9 μL of a mix consisting of 4 nM PIP4K2A (full length protein, SignalChem) and 100 μM PI(5)P diC8 (Tebu-Bio). Enzyme and compounds were pre-incubated at room temperature for 15 minutes.
Then 3 μL of a solution containing 60 μM ATP (Promega) in assay buffer was added to the wells containing compound and enzyme and mixing was performed by pipetting several times. The reaction was incubated at room temperature for 1 h. Then 18 μL of ADP-Glo™ Reagent (Promega) was added to stop the kinase reaction and deplete the unconsumed ATP, mixing was performed by pipetting several times. The plate was incubated at room temperature for 40 minutes before addition of 36 μL of Kinase Detection Reagent (Promega) to convert ADP to ATP and introduce luciferase and luciferin to detect ATP. The reaction was incubated at room temperature for 40 minutes before the luminescence was measured in a in a Victor 3V 1420 multilabel counter (Perkin Elmer).
Percent inhibition of the compounds as compared to dimethyl sulfoxide treated control samples was calculated. Compound concentration versus percent inhibition were fitted to generate IC50 values.

Row | IC50 [nM] | Structure (SMILES)
1 | 10 to 100 | CN(C)C(=O)c1ccc(-c2ccc(Nc3cncc(N4CCCC4=O)c3)nc2)cc1 [Example 38, N,N-dimethyl-4-(6-((5-(2-oxopyrrolidin-1-yl)pyridin-3-yl)amino)pyridin-3-yl)benzamide]
2 | 100 to 1000 | CN(C)C(=O)c1ccc(-c2ccc(Nc3cncc(N4CCOCC4=O)c3)nc2)cc1 [Example 47, N,N-dimethyl-4-(6-((5-(3-oxomorpholino)pyridin-3-yl)amino)pyridin-3-yl)benzamide]
3 | 10 to 100 | CN(C)C(=O)c1ccc(-c2ccc(Nc3cncc(N4Cc5ccccc5C4=O)c3)nc2)cc1 [Example 53, N,N-dimethyl-4-(6-((5-(1-oxoisoindolin-2-yl)pyridin-3-yl)amino)pyridin-3-yl)benzamide]
4 | 100 to 1000 | CN(C)S(=O)(=O)c1ccc(-c2ccc(Nc3cccnc3)nc2)cc1 [Example 63, N,N-dimethyl-4-(6-(pyridin-3-ylamino)pyridin-3-yl)benzenesulfonamide]
5 | > 1000 | CC(=O)N(C)c1ccc(-c2ccc(Nc3cccnc3)nc2)cc1 [Example 64, N-methyl-N-(4-(6-(pyridin-3-ylamino)pyridin-3-yl)phenyl)acetamide]
6 | 100 to 1000 | Cn1cnnc1-c1ccc(-c2ccc(Nc3cccnc3)nc2)cc1 [Example 65, 5-(4-(4-methyl-4H-1,2,4-triazol-3-yl)phenyl)-N-(pyridin-3-yl)pyridin-2-amine]
7 | > 1000 | O=C(c1ccc(-c2ccc(Nc3cccnc3)nc2)cc1)N1CCCC1 [Example 66, (4-(6-(pyridin-3-ylamino)pyridin-3-yl)phenyl)(pyrrolidin-1-yl)methanone]
8 | 100 to 1000 | CN(Cc1ccccc1)C(=O)c1ccc(-c2ccc(Nc3cccnc3)nc2)cc1 [Example 67, N-benzyl-N-methyl-4-(6-(pyridin-3-ylamino)pyridin-3-yl)benzamide]
9 | 100 to 1000 | CCN(C)C(=O)c1ccc(-c2ccc(Nc3cccnc3)nc2)cc1 [Example 68, N-ethyl-N-methyl-4-(6-(pyridin-3-ylamino)pyridin-3-yl)benzamide]
10 | 100 to 1000 | CN(Cc1ccco1)C(=O)c1ccc(-c2ccc(Nc3cccnc3)nc2)cc1 [Example 69, N-(furan-2-ylmethyl)-N-methyl-4-(6-(pyridin-3-ylamino)pyridin-3-yl)benzamide]
11 | > 1000 | CN(Cc1cccnc1)C(=O)c1ccc(-c2ccc(Nc3cccnc3)nc2)cc1 [Example 70, N-methyl-4-(6-(pyridin-3-ylamino)pyridin-3-yl)-N-(pyridin-3-ylmethyl)benzamide]
12 | 10 to 100 | CN(C)C(=O)c1ccc(-c2ccc(Nc3cncc(N4CCN(C)C4=O)c3)nc2)cc1 [Example 72, N,N-dimethyl-4-(6-((5-(3-methyl-2-oxoimidazolidin-1-yl)pyridin-3-yl)amino)pyridin-3-yl)benzamide]
13 | 10 to 100 | CN(C)C(=O)c1ccc(-c2ccc(Nc3cncc(N4CCNC4=O)c3)nc2)cc1 [Example 75, N,N-dimethyl-4-(6-((5-(2-oxoimidazolidin-1-yl)pyridin-3-yl)amino)pyridin-3-yl)benzamide]
14 | 1 to 10 | CN(C)C(=O)c1ccc(-c2ccc(Nc3cncc(N4CCN(Cc5cccnc5)C4=O)c3)nc2)cc1 [Example 76, N,N-dimethyl-4-(6-((5-(2-oxo-3-(pyridin-3-ylmethyl)imidazolidin-1-yl)pyridin-3-yl)amino)pyridin-3-yl)benzamide]
15 | 10 to 100 | CN(C)C(=O)c1ccc(-c2ccc(Nc3cncc(N4CCN(CC5CCCO5)C4=O)c3)nc2)cc1 (stereo not drawn) [Example 77, N,N-dimethyl-4-(6-((5-(2-oxo-3-((tetrahydrofuran-2-yl)methyl)imidazolidin-1-yl)pyridin-3-yl)amino)pyridin-3-yl)benzamide]
16 | 10 to 100 | CN(C)C(=O)c1ccc(-c2ccc(Nc3cncc(N4CCN(CC5CC5)C4=O)c3)nc2)cc1 [Example 79, 4-(6-((5-(3-(cyclopropylmethyl)-2-oxoimidazolidin-1-yl)pyridin-3-yl)amino)pyridin-3-yl)-N,N-dimethylbenzamide]
17 | 100 to 1000 | O=C1CCCN1c1ccc(-c2ccc(Nc3cccnc3)nc2)cc1 [Example 82, 1-(4-(6-(pyridin-3-ylamino)pyridin-3-yl)phenyl)pyrrolidin-2-one]

Second part, the compound before the results:

Row | Structure (SMILES) | IC50 [nM]
18 | COc1ncc(Nc2ccc(-c3ccc(C(=O)N(C)C)cc3)cn2)cn1 [Example 34, 4-(6-((2-methoxypyrimidin-5-yl)amino)pyridin-3-yl)-N,N-dimethylbenzamide] | 100 to 1000
19 | Cc1ncccc1Nc1ccc(-c2ccc(C(=O)N(C)C)cc2)cn1 [Example 35, N,N-dimethyl-4-(6-((2-methylpyridin-3-yl)amino)pyridin-3-yl)benzamide] | > 1000
20 | CN(C)C(=O)c1ccc(-c2ccc(Nc3cnccn3)nc2)cc1 [Example 36, N,N-dimethyl-4-(6-(pyrazin-2-ylamino)pyridin-3-yl)benzamide] | > 1000
21 | CN(C)C(=O)c1ccc(-c2ccc(Nc3cncc(C(=O)N(C)C)c3)nc2)cc1 [Example 37, 5-((5-(4-(dimethylcarbamoyl)phenyl)pyridin-2-yl)amino)-N,N-dimethylnicotinamide] | > 1000
22 | COc1cncc(Nc2ccc(-c3ccc(C(=O)N(C)C)cc3)cn2)c1 [Example 39, 4-(6-((5-methoxypyridin-3-yl)amino)pyridin-3-yl)-N,N-dimethylbenzamide] | 100 to 1000
23 | CN(C)C(=O)c1ccc(-c2ccc(Nc3cncc(C4(C#N)CC4)c3)nc2)cc1 [Example 40, 4-(6-((5-(1-cyanocyclopropyl)pyridin-3-yl)amino)pyridin-3-yl)-N,N-dimethylbenzamide] | 10 to 100
24 | CN(C)C(=O)c1ccc(-c2ccc(Nc3cncc(C4(C(N)=O)CC4)c3)nc2)cc1 [Example 41, 4-(6-((5-(1-carbamoylcyclopropyl)pyridin-3-yl)amino)pyridin-3-yl)-N,N-dimethylbenzamide] | 100 to 1000
25 | CN(C)C(=O)c1ccc(-c2ccc(Nc3cnc4ccn(S(C)(=O)=O)c4c3)nc2)cc1 [Example 42, N,N-dimethyl-4-(6-((1-(methylsulfonyl)-1H-pyrrolo[3,2-b]pyridin-6-yl)amino)pyridin-3-yl)benzamide] | 10 to 100
26 | CC(=O)N1CCOc2ncc(Nc3ccc(-c4ccc(C(=O)N(C)C)cc4)cn3)cc21 [Example 43, 4-(6-((1-acetyl-2,3-dihydro-1H-pyrido[2,3-b][1,4]oxazin-7-yl)amino)pyridin-3-yl)-N,N-dimethylbenzamide] | 1 to 10
27 | CN(C)C(=O)c1ccc(-c2ccc(Nc3cncc(CCN4CCOCC4)c3)nc2)cc1 [Example 48, N,N-dimethyl-4-(6-((5-(2-morpholinoethyl)pyridin-3-yl)amino)pyridin-3-yl)benzamide] | 100 to 1000
28 | CN(C)C(=O)c1ccc(-c2ccc(Nc3cncc(N(C)C(=O)C4CC4c4ccccc4)c3)nc2)cc1 (stereo not drawn) [Example 52, N,N-dimethyl-4-(6-((5-(N-methyl-2-phenylcyclopropane-1-carboxamido)pyridin-3-yl)amino)pyridin-3-yl)benzamide] | 10 to 100
29 | CN(C)C(=O)c1ccc(-c2ccc(Nc3ccc(=O)n(Cc4ccccc4)c3)nc2)cc1 [Example 54, 4-(6-((1-benzyl-6-oxo-1,6-dihydropyridin-3-yl)amino)pyridin-3-yl)-N,N-dimethylbenzamide] | > 1000
30 | CN(C)C(=O)c1ccc(-c2ccc(Nc3cncc(CC(=O)NCc4cccnc4)c3)nc2)cc1 [Example 56, N,N-dimethyl-4-(6-((5-(2-oxo-2-((pyridin-3-ylmethyl)amino)ethyl)pyridin-3-yl)amino)pyridin-3-yl)benzamide] | 100 to 1000
31 | CC(C)[C@@H]1NC(=O)N(c2cncc(Nc3ccc(-c4ccc(C(=O)N(C)C)cc4)cn3)c2)C1=O [Example 57, (S)-4-(6-((5-(4-isopropyl-2,5-dioxoimidazolidin-1-yl)pyridin-3-yl)amino)pyridin-3-yl)-N,N-dimethylbenzamide] | 100 to 1000
32 | COc1ccc(CN2CCN(c3cncc(Nc4ccc(-c5ccc(C(=O)N(C)C)cc5)cn4)c3)C2=O)cc1 [Example 74, 4-(6-((5-(3-(4-methoxybenzyl)-2-oxoimidazolidin-1-yl)pyridin-3-yl)amino)pyridin-3-yl)-N,N-dimethylbenzamide] | 1 to 10
33 | CN(C)C(=O)c1ccc(-c2ccc(Nc3cncc(N4CCN(Cc5cscn5)C4=O)c3)nc2)cc1 [Example 78, N,N-dimethyl-4-(6-((5-(2-oxo-3-(thiazol-4-ylmethyl)imidazolidin-1-yl)pyridin-3-yl)amino)pyridin-3-yl)benzamide] | 1 to 10
